Measured values published in US20220315624A1, “THIOSTREPTON ANALOGS AND METHODS OF MAKING AND USING SAME” (YALE UNIVERSITY, priority 2019, published 2022).
Values after ≈ are worked out from the molar mass of the structure shown. Like-named read-outs stand apart in the source and are kept apart here.

Assays:
[1] = tested on: E. faecalis ATCC 29212 VSE; assay: MIC broth microdilution; assay type: cell-based; details: Enterococcus faecalis, ATCC29212
Procedure: (§1) Twenty-four test agents were shipped to Micromyx and stored at −20° C. until assayed. The compounds were dissolved in 100% DMSO at 6.46 mg/mL prior to testing. Comparator drugs were supplied by Micromyx and were handled as described below:
(§2) The test organisms for the assay were recent clinical isolates or reference strains acquired from the American Type Culture Collection (ATCC; Manassas, Va.). Upon receipt, the isolates were streaked onto Trypticase Soy Agar II+5% sheep blood (TSAB). Colonies were harvested from the plates and a cell suspension was prepared in Trypticase Soy Broth containing cryoprotectant. Aliquots were then frozen at −80° C. Prior to the assay, the frozen seeds of all bacterial isolates to be tested were thawed and streaked for isolation onto TSAB (BD/BBL, Sparks, Md.; Lot No. 9011894), and were incubated overnight at 35° C.
(§3) The test medium for all isolates was cation-adjusted Mueller Hinton broth (CAMHB; BD/BBL; Lot No. 8190586). CAMHB (Cation Adjusted Mueller Hinton Broth) was supplemented with 3% (v/v) lysed horse blood (LHB; Hemostat, Dixon, Calif.; Lot No. 474990) for the testing of streptococci.
(§4) MIC values were determined using a broth microdilution method as recommended by CLSI. Automated liquid handlers (Multidrop 384, Labsystems, Helsinki, Finland; Biomek 2000 and Biomek F/X, Beckman Coulter, Fullerton Calif.) were used to conduct serial dilutions and make liquid transfers.
(§5) The wells of standard 96-well microdilution plates (Costar 3795, Corning Inc., Corning, N.Y.) were filled with 150 μL of the appropriate diluent in columns 2-12 on the Multidrop 384 (DMSO for the thiostrepton analogs, deionized H2O for vancomycin and ceftazidime). These plates were used to prepare the drug “mother plate” which provided the serial drug dilutions for the replicate “daughter plates”. The compounds (300 μL) were dispensed at 101× the highest concentration to be tested into the appropriate row of the “mother plate”. The Biomek 2000 was used to transfer 150 μL of each stock solution from the wells in Column 1 of the mother plate to make ten subsequent 2-fold serial dilutions. The wells of Column 12 contained no drug and served as the organism growth control wells. The daughter plates were loaded with 190 μL of test medium using the Multidrop 384.
(§6) The daughter plates were prepared on the Biomek F/X instrument which transferred […] of drug solution from each well of the mother plate to each corresponding well of each daughter plate in a single step. The wells of the daughter plates ultimately contained 190 μL of media, 2 μL of drug solution, and 10 μL of inoculum prepared as described below. The final concentration of DMSO (if used as a solvent) in the test well was 1%.
(§7) A standardized inoculum of each organism was prepared per CLSI methods. A suspension of organisms from a fresh plate was prepared in CAMHB to equal the turbidity of a 0.5 McFarland standard. The suspensions were diluted 1:20 in CAMHB, or in the case of streptococci CAMHB with LHB. The inoculum for each organism was dispensed into sterile reservoirs divided by length (Beckman Coulter), and the Biomek 2000 was used to inoculate the plates. Daughter plates were placed on the Biomek 2000 work surface reversed so that inoculation took place from low to high drug concentration. The Biomek 2000 delivered 10 μL of standardized inoculum into each well. These dilutions yielded a final cell concentration in the daughter plates of approximately 5.0×10^5 CFU/mL.
(§8) Plates were stacked 3 high, covered with a lid on the top plate, placed in plastic bags, and incubated at 35° C. for 16-20 hr for all organisms except streptococci which were incubated for 20-24 hr. Following incubation, the microplates were removed from the incubator and viewed from the bottom using a plate viewer. The MIC was read and recorded as the lowest concentration of drug that inhibited visible growth of the organism. […]

E. faecium MMX 708 VSE = assay: MIC broth microdilution; assay type: cell-based; details: Enterococcus faecium, MMX708VSE
Procedure: as §1, §2, §3, §4, §5, §6, §7, §8

E. faecium MMX 485 VRE = assay: MIC broth microdilution; assay type: cell-based; details: Enterococcus faecium
Procedure: as §1, §2, §3, §4, §5, §6, §7, §8

S. aureus MMX 8088 MRSA = assay: MIC broth microdilution; assay type: cell-based; details: Staphylococcus aureus
Procedure: as §1, §2, §3, §4, §5, §6, §7, §8

[2] = tested on: S. pneumoniae ATCC 49619 PISP; assay: MIC broth microdilution; assay type: cell-based; details: Streptococcus pneumoniae, ATCC49619, 20 h
Procedure: as §1, §2, §3, §4, §5, §6, §7, §8

S. pyogenes ATCC 19615 = assay: MIC broth microdilution; assay type: cell-based; details: Streptococcus pyogenes, ATCC19615, 20 h
Procedure: as §1, §2, §3, §4, §5, §6, §7, §8

[3] = tested on: S. aureus ATCC 29213 MSSA; assay: MIC broth microdilution; assay type: cell-based; details: Staphylococcus aureus
Procedure: as §1, §2, §3, §4, §5, §6, §7, §8

E. coli ATCC 25922 = assay: MIC broth microdilution; assay type: cell-based; details: Escherichia coli, ATCC25922
Procedure: as §1, §2, §3, §4, §5, §6, §7, §8

E. faecalis MMX 486 VRE = assay: MIC broth microdilution; assay type: cell-based; details: Enterococcus faecalis
Procedure: as §1, §2, §3, §4, §5, §6, §7, §8

[4] = Aqueous solubility analysis in MOPS buffer; assay type: physicochemical; details: thermodynamic from solid, after 24 hours in 10 mM aqueous MOPS buffer, pH 7.2
Procedure: A 2 dram vial was loaded with ˜0.5 mg of a thiostrepton derivative and suspended in ˜4 mL of aqueous 10 mM MOPS buffer (pKa 7.2). The suspension was stirred vigorously for 24 h to ensure equilibration, then filtered through a […] centrifuge filtration unit. A 3.0 mL aliquot was concentrated, and the dried residue was diluted with 0.30 mL of 1:1 1,4-dioxane/H2O (10× original concentration necessitated by detection limits). The total UV absorbance (200-300 nm) was measured in triplicate by UPLC runs with a photodiode array detector. A calibration curve for each compound was created using data points from 3 trials each of concentrations in 1:1 1,4-dioxane/H2O ranging from […]. These concentrations were plotted against their respective average absorbances. The experimental concentration of each compound was calculated by dividing the found μg/mL value by the residue concentration factor of 10 to yield the actual solubility value.

[5] = Un-inoculated solubility control plate (drug precipitation); assay type: physicochemical
[6] = E. faecalis ATCC 29212 VSE, CAMHB, read-out: MIC
[7] = E. faecium MMX 708 VSE, CAMHB, read-out: MIC
[8] = E. faecium MMX 485 VRE, CAMHB, read-out: MIC
[9] = S. aureus MMX 8088 MRSA, CAMHB, read-out: MIC
[10] = S. pneumoniae ATCC 49619 PISP, CAMHB with 3% lysed horse blood, read-out: MIC
[11] = S. pyogenes ATCC 19615, CAMHB with 3% lysed horse blood, read-out: MIC
[12] = S. aureus ATCC 29213 MSSA, CAMHB, read-out: MIC
[13] = E. coli ATCC 25922, CAMHB, read-out: MIC
[14] = E. faecalis MMX 486 VRE, CAMHB, read-out: MIC

SMILES	MIC [1, 6]	MIC (E. faecium MMX 708 VSE; [7])	MIC (E. faecium MMX 485 VRE; [8])	MIC (S. aureus MMX 8088 MRSA; [9])	MIC [2, 10]	MIC (S. pyogenes ATCC 19615; [11])	MIC [3, 12]	MIC (E. coli ATCC 25922; [13])	MIC (E. faecalis MMX 486 VRE; [14])	solubility at 24 h ([4]; aqueous 10 mM MOPS buffer)	MIC [1]	MIC (E. faecium MMX 708 VSE)	MIC (E. faecium MMX 485 VRE; VRE)	MIC (S. aureus MMX 8088 MRSA; MRSA)	MIC [2]	MIC (S. pyogenes ATCC 19615)	MIC [3]	MIC (E. coli ATCC 25922)	MIC (E. faecalis MMX 486 VRE; VRE)	also measured
C=C(NC(=O)c1csc(C2=N[C@@H]3c4csc(n4)[C@H]4NC(=O)c5csc(n5)[C@H]([C@](C)(O)[C@@H](C)O)NC(=O)C5CSC(=N5)/C(=C/C)NC(=O)[C@H]([C@@H](C)O)NC(=O)c5csc(n5)[C@]3(CC2)NC(=O)[C@H](C)NC(=O)C(=C)NC(=O)[C@H](C)NC(=O)[C@H]([C@@H](C)CC)N[C@@H]2C=Cc3c([C@H](C)O)cc(nc3[C@H]2O)C(=O)O[C@@H]4C)n1)C(=O)NC(=CNC(=O)c1cccc(C(C)=O)c1)C(N)=O [RJS-05]	1 µg/mL (≈ 0.548 µM)	1 µg/mL (≈ 0.548 µM)	0.5 µg/mL (≈ 0.274 µM)	2 µg/mL (≈ 1.1 µM)	0.004 µg/mL (≈ 0.00219 µM)	0.004 µg/mL (≈ 0.00219 µM)	1 µg/mL (≈ 0.548 µM)	> 64 µg/mL	1 µg/mL (≈ 0.548 µM)	1.1 µg/mL (≈ 0.602 µM)										
C=C(NC(=O)c1csc(C2=N[C@@H]3c4csc(n4)[C@H]4NC(=O)c5csc(n5)[C@H]([C@](C)(O)[C@@H](C)O)NC(=O)C5CSC(=N5)/C(=C/C)NC(=O)[C@H]([C@@H](C)O)NC(=O)c5csc(n5)[C@]3(CC2)NC(=O)[C@H](C)NC(=O)C(=C)NC(=O)[C@H](C)NC(=O)[C@H]([C@@H](C)CC)N[C@@H]2C=Cc3c([C@H](C)O)cc(nc3[C@H]2O)C(=O)O[C@@H]4C)n1)C(=O)NC(=CNC(=O)c1ccc(Br)cc1)C(N)=O [RJS-08]	0.5 µg/mL (≈ 0.268 µM)	0.5 µg/mL (≈ 0.268 µM)	0.5 µg/mL (≈ 0.268 µM)	1 µg/mL (≈ 0.537 µM)	< 0.001 µg/mL	0.002 µg/mL (≈ 0.00107 µM)	1 µg/mL (≈ 0.537 µM)	> 64 µg/mL	0.5 µg/mL (≈ 0.268 µM)											Precipitation in CAMHB ([5]; at 64 μg/mL in CAMHB): distinct precipitation; Precipitation in CAMHB in LHB ([5]; at 64 μg/mL in CAMHB in LHB): distinct precipitation
C=C(NC(=O)c1csc(C2=N[C@@H]3c4csc(n4)[C@H]4NC(=O)c5csc(n5)[C@H]([C@](C)(O)[C@@H](C)O)NC(=O)C5CSC(=N5)/C(=C/C)NC(=O)[C@H]([C@@H](C)O)NC(=O)c5csc(n5)[C@]3(CC2)NC(=O)[C@H](C)NC(=O)C(=C)NC(=O)[C@H](C)NC(=O)[C@H]([C@@H](C)CC)N[C@@H]2C=Cc3c([C@H](C)O)cc(nc3[C@H]2O)C(=O)O[C@@H]4C)n1)C(=O)NC(=CNC(=O)COC)C(N)=O [RJS-06]	1 µg/mL (≈ 0.571 µM)	1 µg/mL (≈ 0.571 µM)	0.5 µg/mL (≈ 0.285 µM)	1 µg/mL (≈ 0.571 µM)	0.015 µg/mL (≈ 0.00856 µM)	0.008 µg/mL (≈ 0.00457 µM)	0.5 µg/mL (≈ 0.285 µM)	> 64 µg/mL	1 µg/mL (≈ 0.571 µM)	28 µg/mL (≈ 16 µM)										
C=C(NC(=O)c1csc(C2=N[C@@H]3c4csc(n4)[C@H]4NC(=O)c5csc(n5)[C@H]([C@](C)(O)[C@@H](C)O)NC(=O)C5CSC(=N5)/C(=C/C)NC(=O)[C@H]([C@@H](C)O)NC(=O)c5csc(n5)[C@]3(CC2)NC(=O)[C@H](C)NC(=O)C(=C)NC(=O)[C@H](C)NC(=O)[C@H]([C@@H](C)CC)N[C@@H]2C=Cc3c([C@H](C)O)cc(nc3[C@H]2O)C(=O)O[C@@H]4C)n1)C(=O)NC(=CNC(=O)c1ccccc1)C(N)=O [RJS-02]											1 µg/mL (≈ 0.561 µM)	0.5 µg/mL (≈ 0.28 µM)	0.5 µg/mL (≈ 0.28 µM)	2 µg/mL (≈ 1.12 µM)	0.008 µg/mL (≈ 0.00448 µM)	0.002 µg/mL (≈ 0.00112 µM)	1 µg/mL (≈ 0.561 µM)	> 64 µg/mL	1 µg/mL (≈ 0.561 µM)	solubility at 24 h [4]: < 1 µg/mL
C=C(NC(=O)c1csc(C2=N[C@@H]3c4csc(n4)[C@H]4NC(=O)c5csc(n5)[C@H]([C@](C)(O)[C@@H](C)O)NC(=O)C5CSC(=N5)/C(=C/C)NC(=O)[C@H]([C@@H](C)O)NC(=O)c5csc(n5)[C@]3(CC2)NC(=O)[C@H](C)NC(=O)C(=C)NC(=O)[C@H](C)NC(=O)[C@H]([C@@H](C)CC)N[C@@H]2C=Cc3c([C@H](C)O)cc(nc3[C@H]2O)C(=O)O[C@@H]4C)n1)C(=O)NC(=CNC(=O)c1cccc(/C=N/OC(C)(C)C(=O)O)c1)C(N)=O [RJS-13]	2 µg/mL (≈ 1.05 µM)	1 µg/mL (≈ 0.523 µM)	1 µg/mL (≈ 0.523 µM)	1 µg/mL (≈ 0.523 µM)	0.015 µg/mL (≈ 0.00784 µM)	0.015 µg/mL (≈ 0.00784 µM)	1 µg/mL (≈ 0.523 µM)	> 64 µg/mL	1 µg/mL (≈ 0.523 µM)											
C=C(NC(=O)c1csc(C2=N[C@@H]3c4csc(n4)[C@H]4NC(=O)c5csc(n5)[C@H]([C@](C)(O)[C@@H](C)O)NC(=O)C5CSC(=N5)/C(=C/C)NC(=O)[C@H]([C@@H](C)O)NC(=O)c5csc(n5)[C@]3(CC2)NC(=O)[C@H](C)NC(=O)C(=C)NC(=O)[C@H](C)NC(=O)[C@H]([C@@H](C)CC)N[C@@H]2C=Cc3c([C@H](C)O)cc(nc3[C@H]2O)C(=O)O[C@@H]4C)n1)C(=O)NC(=CNC(=O)c1ccc(OC)cc1)C(N)=O [RJS-07]											2 µg/mL (≈ 1.1 µM)	1 µg/mL (≈ 0.551 µM)	1 µg/mL (≈ 0.551 µM)	2 µg/mL (≈ 1.1 µM)	0.004 µg/mL (≈ 0.0022 µM)	0.004 µg/mL (≈ 0.0022 µM)	1 µg/mL (≈ 0.551 µM)	> 64 µg/mL	1 µg/mL (≈ 0.551 µM)	
